Results from US10934273B2, “Crystalline forms of 4-(2-((1R,2R)-2-hydroxycyclohexylamino)benzothiazol-6-yloxy)-N-methylpicolinamide” (Novartis AG, priority 2016, dated 2021).
Counter-ions that a name gives are not always drawn. Like-named read-outs stand apart in the source and are kept apart here.

What was measured:
Format in all cases: physicochemical
Aqueous solubility = conditions: aqueous medium, aqueous buffer
Method: (§1) The crystalline di-hydrochloride monohydrate salt of 4-(2-((1R,2R)-2-hydroxycyclohexylamino)benzothiazol-6-yloxy)-N-methylpicolinamide (Form A) exists primarily as a crystalline material. Form A is hygroscopic, having a maximum water uptake of about 10.79% at 25° C. and up to 95% relative humidity (RH)). […] Form A has a very low aqueous solubility at neutral pH (about 0.006 mg/mL), however it has a high aqueous solubility at low pH (about >20 mg/mL).

[1] = Hygroscopicity (water uptake / exposure to humidity)
Method: as §1

[2] = Bulk physical and chemical stability (degradation under stress conditions)
Excerpt: Five hydrated forms of the di-hydrochloride salt were identified, which included the crystalline di-hydrochloride monohydrate salt of 4-(2-((1R,2R)-2-hydroxycyclohexylamino)benzothiazol-6-yloxy)-N-methylpicolinamide (Form A) discussed herein.

[3] = Intrinsic dissolution rate; conditions: pH 4.5; Form A versus Form B

solubility (Aqueous solubility; low pH, read-out: aqueous solubility at low pH): > 20000 µg/mL
solubility (Aqueous solubility; neutral pH, read-out: aqueous solubility at neutral pH): ~6 µg/mL
maximum water uptake ([1]; 25° C., up to 95% relative humidity (RH)): about 10.79%
phase change on exposure to humidity ([1]; exposure to humidity): little to no phase change
thermodynamic stability compared to the other four hydrated forms ([2]; ambient conditions): more thermodynamically stable hydrate
degradation of bulk drug substance ([2]; one to two weeks at 50° C., 75% relative humidity): less than 1%
degradation of bulk drug substance ([2]; one to two weeks at 50° C., ambient relative humidity): less than 1%
degradation of bulk drug substance ([2]; one week at 80° C., ambient relative humidity): less than 1%
intrinsic dissolution rate relative to mono-hydrochloride salt (Form B) [3]: about 150 fold
SMILES: CNC(=O)c1cc(Oc2ccc3nc(N[C@@H]4CCCC[C@H]4O)sc3c2)ccn1 [Form A, Di-Hydrochloride Monohydrate Salt of 4-(2-((1R,2R)-2-hydroxycyclohexylamino)benzothiazol-6-yloxy)-N-methylpicolinamide]
